Experimental data as given in patent publication US11780841B2, “3,6-methano-1H-pyrrolo[3,2-b]pyridine and 3,6-methano-1H-pyrrolo[3,2-c]pyridine compounds and medicaments using same” (priority 2018, dated 2023).

The molecules below were run on recombinant rabies virus 1088 strain expressing Gaussia Luciferase (GLuc) (1088/GLuc). Conditions: read-out: Anti-rabies activity.
Assay type: cell-based

SMILES | IC50 [µM]
Cc1ccc(CN2CC3CC4(C(=O)NCc5ccccc5)N=CC3C2C4CC(C)C)cc1 (centres unmarked) [IIF-86] | < 5
NC(=O)CCNC(=O)[C@]12NC[C@H]3C[C@H]1CN(CC1CCCCC1)[C@H]2[C@@H]3CCc1ccccc1 [IB-710] | < 5
CC(C)CCN1C[C@@H]2C[C@@H]3CN[C@]2(C(=O)NCCC(N)=O)[C@@H]1[C@@H]3CCc1ccccc1 [IB-636] | 10 to 30
CC(C)C[C@@H]1[C@@H]2CN[C@@]3(C(=O)NCc4ccccc4)[C@@H](C2)CN(CC(C)C)[C@@H]13 (relative stereo) [IB-5] | 10 to 30
O=C(NCCO)[C@]12NC[C@H]3C[C@H]1CN(Cc1ccccc1)[C@H]2[C@@H]3Cc1ccccc1 [IB-676] | 10 to 30
CC(C)CCNC(=O)[C@@]12C[C@@H]3CN(CC4CCCCC4)[C@@H]([C@@H]3CN1)[C@H]2CC(C)C [IF-659] | 10 to 30
NC(=O)C[C@@H]1[C@@H]2[C@@H]3CN[C@@]1(C(=O)NCCO)C[C@@H]3CN2Cc1cccc2ccccc12 [IF-230] | 10 to 30
CC(C)CN1C[C@H]2C[C@]3(C(=O)NCc4ccc(O)cc4)NC[C@H]2[C@H]1[C@H]3Cc1cccc2ccccc12 [IF-500] | 10 to 30
CC(C)C[C@@H]1[C@@H]2[C@@H]3CN[C@@]1(C(=O)NCc1ccc(O)cc1)C[C@@H]3CN2CC1CCCCC1 [IF-478] | < 5
NC(=O)CCNC(=O)[C@]12NC[C@H]3C[C@H]1CN(CCc1ccccc1)[C@H]2[C@@H]3Cc1ccccc1 [IB-707] | < 5
CC(C)C[C@@H]1[C@H]2CN[C@@]3(C(=O)NCc4ccccc4)[C@@H](C2)CN(Cc2ccc(F)cc2)[C@@H]13 [IB-773] | < 5
CC(C)CNC(=O)[C@]12NC[C@H]3C[C@H]1CN(Cc1cccc4ccccc14)[C@H]2[C@@H]3Cc1ccc(O)cc1 [IB-763] | 10 to 30
CC(C)C[C@@H]1[C@H]2CN[C@@]3(C(=O)NCCCNC(=N)N)[C@@H](C2)CN(Cc2cccc4ccccc24)[C@@H]13 [IB-350] | 10 to 30
CC(C)CN1C[C@H]2C[C@]3(C(=O)NCCC(=O)O)NC[C@H]2[C@H]1[C@H]3Cc1cccc2ccccc12 [IF-428] | 10 to 30
O=C(NCCO)[C@]12NC[C@H]3C[C@H]1CN(Cc1ccc(F)cc1)[C@H]2[C@@H]3Cc1ccccc1 [IB-649] | 10 to 30
CC(C)C[C@@H]1[C@@H]2[C@@H]3CN[C@@]1(C(=O)NCc1ccc(F)cc1)C[C@@H]3CN2Cc1ccccc1 [IF-807] | < 5
CC(C)CC[C@@H]1[C@@H]2[C@@H]3CN[C@@]1(C(=O)NCc1ccc(O)cc1)C[C@@H]3CN2CC1CCCCC1 [IF-474] | < 5
CC(C)C[C@@H]1[C@@H]2[C@@H]3CN[C@@]1(C(=O)NCc1ccc(Cl)cc1)C[C@@H]3CN2CC(C)C [IF-846] | 10 to 30
CC(C)CCN1C[C@@H]2C[C@@H]3CN[C@]2(C(=O)NCCC(=O)O)[C@@H]1[C@@H]3CC(C)C [IB-611] | 10 to 30
NC(=O)CN1C[C@@H]2C[C@@H]3CN[C@]2(C(=O)NCc2cccc4ccccc24)[C@@H]1[C@@H]3Cc1ccccc1 (relative stereo) [IB-82] | 10 to 30
CC(C)CC[C@@H]1[C@@H]2[C@@H]3CN[C@@]1(C(=O)NCCC(N)=O)C[C@@H]3CN2Cc1cccc2ccccc12 [IF-384] | 10 to 30
CC(C)CC1C2C=NC3(C(=O)NCc4ccccc4)C(C2)CN(Cc2cccc(Cl)c2)C13 (centres unmarked) [IIB-84] | < 5

SMILES | IC50 [µM]
CCCCCCNC(=O)[C@]12NC[C@H]3C[C@H]1CN(Cc1ccccc1)[C@H]2[C@@H]3CCCNC(=N)N [IB-249] | 10 to 30
CC(C)CC[C@@H]1[C@@H]2[C@@H]3CN[C@@]1(C(=O)NCCO)C[C@@H]3CN2Cc1ccc(F)cc1 [IF-490] | 10 to 30
Cc1ccc(C[C@@H]2[C@@H]3[C@@H]4CN[C@@]2(C(=O)NCc2ccccc2)C[C@@H]4CN3CC(C)C)cc1 (relative stereo) [IF-14] | 10 to 30
CC(C)CCNC(=O)[C@@]12C[C@@H]3CN(Cc4ccc(F)cc4)[C@@H]([C@@H]3CN1)[C@H]2CC(C)C (relative stereo) [IF-585] | < 5
O=C(NCCc1ccccc1)[C@@]12C[C@@H]3CN(Cc4ccccc4)[C@@H]([C@@H]3CN1)[C@H]2Cc1ccc(O)cc1 [IF-722] | < 5
O=C(NCc1ccccc1)[C@]12NC[C@H]3C[C@H]1CN(CCO)[C@H]2[C@@H]3Cc1ccccc1 [IB-619] | 10 to 30
N=C(N)NCCCNC(=O)[C@]12NC[C@H]3C[C@H]1CN(Cc1ccccc1)[C@H]2[C@@H]3Cc1ccccc1 [IB-276] | 10 to 30
CC(C)CCN1C[C@H]2C[C@]3(C(=O)NCc4cccc5ccccc45)NC[C@H]2[C@H]1[C@H]3CC(C)C [IF-705] | < 5
CCCCCCNC(=O)[C@@]12C[C@@H]3CN(CCC(C)C)[C@@H]([C@@H]3CN1)[C@H]2CC(C)C (relative stereo) [IF-546] | 10 to 30
CC(C)C[C@@H]1[C@@H]2[C@@H]3CN[C@@]1(C(=O)NCCO)C[C@@H]3CN2CC1CCCCC1 [IF-606] | 10 to 30
CC(C)CC[C@@H]1[C@H]2CN[C@@]3(C(=O)NCCC(N)=O)[C@@H](C2)CN(CC2CCCCC2)[C@@H]13 [IB-357] | 10 to 30
O=C(NCCc1ccccc1)[C@@]12C[C@@H]3CN(Cc4cccc5ccccc45)[C@@H]([C@@H]3CN1)[C@H]2Cc1ccc(O)cc1 [IF-708] | < 5
O=C(NCCc1ccccc1)[C@@]12C[C@@H]3CN(CCO)[C@@H]([C@@H]3CN1)[C@H]2Cc1cccc2ccccc12 [IF-610] | 10 to 30
CC(C)CCNC(=O)[C@@]12C[C@@H]3CN(CC(C)C)[C@@H]([C@@H]3CN1)[C@H]2Cc1ccccc1 [IF-845] | 10 to 30
NC(=O)CCNC(=O)[C@]12NC[C@H]3C[C@H]1CN(Cc1ccc(O)cc1)[C@H]2[C@@H]3Cc1cccc2ccccc12 [IB-743] | < 5
CC(C)C[C@@H]1[C@@H]2[C@@H]3CN[C@@]1(C(=O)NCc1ccccc1)C[C@@H]3CN2Cc1ccc(Cl)cc1 [IF-839] | 5 to 10
O=C(NCc1ccc(O)cc1)[C@@]12C[C@@H]3CN(Cc4cccc5ccccc45)[C@@H]([C@@H]3CN1)[C@H]2Cc1ccccc1 [IF-472] | < 5
CC(C)CCNC(=O)[C@@]12C[C@@H]3CN(Cc4ccc(O)cc4)[C@@H]([C@@H]3CN1)[C@H]2Cc1cccc2ccccc12 [IF-684] | 10 to 30
CC(C)C[C@@H]1[C@H]2CN[C@@]3(C(=O)NCc4ccc(O)cc4)[C@@H](C2)CN(Cc2ccc(N(C)C)cc2)[C@@H]13 (relative stereo) [IB-892] | 10 to 30
CC(C)CCN1C[C@H]2C[C@]3(C(=O)NCc4ccccc4)NC[C@H]2[C@H]1[C@H]3Cc1ccccc1 (relative stereo) [IF-9] | 10 to 30
N=C(N)NCCC[C@@H]1[C@@H]2[C@@H]3CN[C@@]1(C(=O)NCc1ccccc1)C[C@@H]3CN2Cc1cccc2ccccc12 [IF-236] | 10 to 30
CC(C)C[C@@H]1[C@H]2CN[C@@]3(C(=O)NCCc4ccccc4)[C@@H](C2)CN(Cc2ccc(F)cc2)[C@@H]13 [IB-725] | < 5

SMILES | IC50 [µM]
CC(C)CNC(=O)[C@]12NC[C@H]3C[C@H]1CN(Cc1cccc4ccccc14)[C@H]2[C@@H]3CC(C)C [IB-762] | < 5
CC(C)C[C@@H]1[C@@H]2CN[C@@]3(C(=O)NCCc4ccccc4)[C@@H](C2)CN(Cc2ccccc2)[C@@H]13 (relative stereo) [IB-12] | 10 to 30
O=C(O)CCNC(=O)[C@]12NC[C@H]3C[C@H]1CN(Cc1ccc(F)cc1)[C@H]2[C@@H]3Cc1cccc2ccccc12 [IB-384] | 10 to 30
CC(C)CC1C2C=NC3(C(=O)NCc4ccc5ccccc5c4)C(C2)CN(Cc2ccccc2)C13 (centres unmarked) [IIB-102] | < 5
O=C(NCc1ccccc1)[C@]12NC[C@H]3C[C@H]1CN(Cc1ccccc1)[C@H]2[C@@H]3Cc1cccc2ccccc12 [IB-777] | < 5
N=C(N)NCCCN1C[C@@H]2C[C@@H]3CN[C@]2(C(=O)NCCc2ccccc2)[C@@H]1[C@@H]3Cc1cccc2ccccc12 [IB-327] | 10 to 30
CC(C)C[C@@H]1[C@@H]2[C@@H]3CN[C@@]1(C(=O)NCc1cccc(O)c1)C[C@@H]3CN2Cc1ccc(N(C)C)cc1 [IF-866] | 10 to 30
CC(C)CCNC(=O)C12NCC3CC1CN(Cc1ccc(O)cc1)C2C3Cc1ccccc1 (centres unmarked) [IB-574] | 10 to 30
NC(=O)CN1C[C@@H]2C[C@@H]3CN[C@]2(C(=O)NCCc2ccccc2)[C@@H]1[C@@H]3Cc1ccccc1 [IB-87] | < 5
O=C(NCc1ccc(F)cc1)[C@]12NC[C@H]3C[C@H]1CN(CCc1ccccc1)[C@H]2[C@@H]3Cc1ccc(O)cc1 [IB-642] | < 5
NC(=O)CCNC(=O)[C@]12NC[C@H]3C[C@H]1CN(Cc1ccc(F)cc1)[C@H]2[C@@H]3Cc1ccccc1 [IB-712] | < 5
NC(=O)CN1C[C@H]2C[C@]3(C(=O)NCCc4ccccc4)NC[C@H]2[C@H]1[C@H]3Cc1cccc2ccccc12 (relative stereo) [IF-90] | 10 to 30
CC(C)CCN1C[C@@H]2C[C@H]3CN[C@]2(C(=O)NCc2ccccc2)[C@@H]1[C@@H]3Cc1ccccc1 (relative stereo) [IB-9] | 10 to 30
CC(C)CCN1C[C@H]2C[C@]3(C(=O)NCC(C)C)NC[C@H]2[C@H]1[C@H]3Cc1ccccc1 [IF-735] | 10 to 30
NC(=O)CN1C[C@@H]2C[C@@H]3CN[C@]2(C(=O)NCc2cccc4ccccc24)[C@@H]1[C@@H]3Cc1cccc2ccccc12 [IB-90] | < 5
O=C(NCCO)[C@@]12C[C@@H]3CN(CC4CCCCC4)[C@@H]([C@@H]3CN1)[C@H]2Cc1ccccc1 [IF-486] | 10 to 30
CCCCCCNC(=O)[C@@]12C[C@@H]3CN(CCC(C)C)[C@@H]([C@@H]3CN1)[C@H]2Cc1ccccc1 (relative stereo) [IF-599] | 10 to 30
CCCCCCNC(=O)[C@@]12C[C@@H]3CN(CC4CCCCC4)[C@@H]([C@@H]3CN1)[C@H]2CCCNC(=N)N [IF-260] | 10 to 30
O=C(NCc1ccc(F)cc1)[C@@]12C[C@@H]3CN(CCO)[C@@H]([C@@H]3CN1)[C@H]2CCc1ccccc1 (relative stereo) [IF-516] | < 5
CCCCCCNC(=O)[C@]12NC[C@H]3C[C@H]1CN(CCO)[C@H]2[C@@H]3Cc1ccc(O)cc1 [IB-478] | 10 to 30
O=C(NCCO)[C@]12NC[C@H]3C[C@H]1CN(CCc1ccccc1)[C@H]2[C@@H]3Cc1cccc2ccccc12 [IB-593] | 10 to 30
O=C(NCc1ccc(O)cc1)[C@@]12C[C@@H]3CN(Cc4ccccc4)[C@@H]([C@@H]3CN1)[C@H]2Cc1ccccc1 [IF-494] | 10 to 30

Same assay, conditions: read-out: IC50

SMILES | IC50 [µM]
CC(C)C[C@@H]1[C@@H]2CN[C@@]3(C(=O)NCc4ccccc4)[C@@H](C2)CN(CC(C)C)[C@@H]13 (relative stereo) [IB-5] | 18.2
Cc1ccc(C[C@@H]2[C@@H]3[C@@H]4CN[C@@]2(C(=O)NCc2ccccc2)C[C@@H]4CN3CC(C)C)cc1 (relative stereo) [IF-14] | 14.1
CC(C)CCN1C[C@H]2C[C@]3(C(=O)NCc4ccccc4)NC[C@H]2[C@H]1[C@H]3Cc1ccccc1 (relative stereo) [IF-9] | 15.6
CC(C)C[C@@H]1[C@@H]2CN[C@@]3(C(=O)NCCc4ccccc4)[C@@H](C2)CN(Cc2ccccc2)[C@@H]13 (relative stereo) [IB-12] | 15.5
CC(C)CCN1C[C@@H]2C[C@H]3CN[C@]2(C(=O)NCc2ccccc2)[C@@H]1[C@@H]3Cc1ccccc1 (relative stereo) [IB-9] | 17
